Consider 22 compounds from PubChem BioAssay AID330 (DTP/NCI, 2004).

The experiment concerns P388 leukemia ip, CD2F1 mice, survival T/C. Description: NCI In Vivo Anticancer Drug Screen. Data for tumor model P388 Leukemia (intraperitoneal) in CD2F1 (CDF1) mice. The note with it: endpoint: median survival time, higher = longer survival. An outline of the steps:
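Mice carrying the transplanted tumor received test compound or vehicle. Survival was recorded in each group, and the value is the treated-group measurement divided by that of the vehicle-treated control group.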

[1] abbreviates: dose: 50.0 mg/kg/injection, schedule: Q01DX005 (ip), vehicle: saline with Tween-80.
[2] abbreviates: dose: 100.0 mg/kg/injection, schedule: Q01DX005 (ip), vehicle: saline with Tween-80.
The mark [3] stands for this setting: dose: 200.0 mg/kg/injection, schedule: Q01DX005 (ip), vehicle: saline with Tween-80.
The mark [4] stands for this setting: dose: 50.0 mg/kg/injection, schedule: Q01DX009 (ip), vehicle: saline with Tween-80.
Setting [5] is: dose: 100.0 mg/kg/injection, schedule: Q01DX009 (ip), vehicle: saline with Tween-80.
Setting [6] is: dose: 200.0 mg/kg/injection, schedule: Q01DX009 (ip), vehicle: saline with Tween-80.
[7] abbreviates: dose: 6.25 mg/kg/injection, schedule: Q01DX009 (ip), vehicle: saline.
Setting [8] is: dose: 12.5 mg/kg/injection, schedule: Q01DX009 (ip), vehicle: saline.
[9] abbreviates: dose: 25.0 mg/kg/injection, schedule: Q01DX009 (ip), vehicle: saline.
[10] abbreviates: dose: 50.0 mg/kg/injection, schedule: Q01DX009 (ip), vehicle: saline.
Where [11] appears, read: dose: 100.0 mg/kg/injection, schedule: Q01DX009 (ip), vehicle: saline.
Where [12] appears, read: dose: 200.0 mg/kg/injection, schedule: Q01DX009 (ip), vehicle: saline.

Molecules are shown by their SMILES. Values joined by “and” are separate entries in the source; they are usually repeats but may differ in a detail not shown here. Equal entries are not always repeated. Toxic doses and inconclusive results are not listed.

With `Clc1ccc2c3c([nH]c2c1)CCc1cncnc1-3`, the T/C runs as follows: (dose: 100.0 mg/kg/injection, schedule: Q01DX001 (ip), vehicle: Klucel (hydroxypropylcellulose) (HPC)) 93 % of control; (dose: 200.0 mg/kg/injection, schedule: Q01DX001 (ip), vehicle: Klucel (hydroxypropylcellulose) (HPC)) 90 % of control; (dose: 400.0 mg/kg/injection, schedule: Q01DX001 (ip), vehicle: Klucel (hydroxypropylcellulose) (HPC)) 90 % of control.

For `CCCCCCC(=O)/C=C/c1ccc(Br)cc1`, the T/C reads like this: under setting [1], 104 % of control; under setting [2], 104 % of control; under setting [3], 97 % of control.

In the case of `COC1=C(OC)C(=O)C(C/C=C(\C)CC/C=C(\C)CC/C=C(\C)CC/C=C(\C)CC/C=C(\C)CC/C=C(\C)CC/C=C(\C)CC/C=C(\C)CC/C=C(\C)CCC=C(C)C)=C(C)C1=O`, the T/C reads like this: (dose: 3.13 mg/kg/injection, schedule: Q01DX009 (ip), vehicle: saline with Tween-80) 90 % of control and 96 % of control; (dose: 6.25 mg/kg/injection, schedule: Q01DX009 (ip), vehicle: saline with Tween-80) 86 % of control and 93 % of control; (dose: 12.5 mg/kg/injection, schedule: Q01DX009 (ip), vehicle: saline with Tween-80) 96 % of control; (dose: 25.0 mg/kg/injection, schedule: Q01DX009 (ip), vehicle: saline with Tween-80) 86 % of control and 87 % of control; under setting [4], 90 % of control; under setting [5], 86 % of control and 87 % of control.

`N#C/C(C(N)=O)=C(\C(=O)c1ccccc1)c1ccccc1`: the T/C reads like this: under setting [1], 99 % of control; under setting [2], 96 % of control.

In the case of `O=C1c2ccccc2C(=O)c2c(O)ccc3cccc1c23`, the T/C reads like this: (dose: 50.0 mg/kg/injection, schedule: Q01DX005 (ip), vehicle: Klucel + Tween-80) 92 % of control; (dose: 100.0 mg/kg/injection, schedule: Q01DX005 (ip), vehicle: Klucel + Tween-80) 92 % of control; (dose: 200.0 mg/kg/injection, schedule: Q01DX005 (ip), vehicle: Klucel + Tween-80) 92 % of control.

As for `N[C@H]1CC[C@@H](C(=O)O)C1`, the T/C (dose: 50.0 mg/kg/injection, schedule: Q01DX005 (ip), vehicle: saline) is 109 % of control; the T/C (dose: 100.0 mg/kg/injection, schedule: Q01DX005 (ip), vehicle: saline) is 101 % of control; the T/C (dose: 200.0 mg/kg/injection, schedule: Q01DX005 (ip), vehicle: saline) is 108 % of control.

Turning to `Cc1nc(C(=O)N=C(N)N)c(N)nc1-c1ccccc1`, the T/C by setting is: (dose: 15.0 mg/kg/injection, schedule: Q01DX005 (ip), vehicle: saline with Tween-80) 106 % of control; (dose: 30.0 mg/kg/injection, schedule: Q01DX005 (ip), vehicle: saline with Tween-80) 104 % of control; (dose: 60.0 mg/kg/injection, schedule: Q01DX005 (ip), vehicle: saline with Tween-80) 100 % of control.

With `Cn1c(=O)c2nc(-c3ccc(Cl)c(Cl)c3)cnc2n(C)c1=O`, the T/C by setting is: (dose: 100.0 mg/kg/injection, schedule: Q04DX002 (ip), vehicle: Klucel (hydroxypropylcellulose) (HPC)) 96 % of control; (dose: 200.0 mg/kg/injection, schedule: Q04DX002 (ip), vehicle: Klucel (hydroxypropylcellulose) (HPC)) 95 % of control; (dose: 400.0 mg/kg/injection, schedule: Q04DX002 (ip), vehicle: Klucel (hydroxypropylcellulose) (HPC)) 98 % of control.

On to `CCCNC(=O)ON1C(=O)C2C3C=CC(C3)C2C1=O` (centres undefined), for which the T/C was 96 % of control (dose: 6.25 mg/kg/injection, schedule: Q01DX005 (ip), vehicle: Klucel (hydroxypropylcellulose) (HPC)); 104 % of control (dose: 12.5 mg/kg/injection, schedule: Q01DX005 (ip), vehicle: Klucel (hydroxypropylcellulose) (HPC)); 96 % of control (dose: 25.0 mg/kg/injection, schedule: Q01DX005 (ip), vehicle: Klucel (hydroxypropylcellulose) (HPC)).

In the case of `COc1cc2c(cc1O)-c1[nH]ncc1CCC2`, the T/C reads like this: (dose: 100.0 mg/kg/injection, schedule: Q04DX003 (ip), vehicle: saline) 101 % of control; (dose: 200.0 mg/kg/injection, schedule: Q04DX003 (ip), vehicle: saline) 97 % of control; (dose: 400.0 mg/kg/injection, schedule: Q04DX003 (ip), vehicle: saline) 102 % of control.

With `COC(=O)c1ccc(C)cc1C(=O)OC`, the T/C is 100 % of control (dose: 50.0 mg/kg/injection, schedule: Q04DX003 (ip), vehicle: saline with Tween-80); 100 % of control (dose: 100.0 mg/kg/injection, schedule: Q04DX003 (ip), vehicle: saline with Tween-80); 104 % of control (dose: 200.0 mg/kg/injection, schedule: Q04DX003 (ip), vehicle: saline with Tween-80).

`CCCN(CCC)c1ccc(N=Nc2ccccc2C(=O)O)cc1`: the T/C under setting [4] is 102 % of control; the T/C under setting [5] is 105 % of control; the T/C under setting [6] was 112 % of control; the T/C (dose: 400.0 mg/kg/injection, schedule: Q01DX009 (ip), vehicle: saline with Tween-80) was 110 % of control.

For `COC(=O)NC1(NC(=O)OC)NC(=O)c2cc(OC)c(OC)cc2N1`, the T/C was 102 % of control (dose: 25.0 mg/kg/injection, schedule: Q01DX005 (ip), vehicle: saline with Tween-80); 99 % of control under setting [1]; 98 % of control under setting [2]; 118 % of control under setting [3].

Consider `COc1cc(CNc2cccc(F)c2)cc(OC)c1OC`, for which the T/C was 100 % of control (dose: 50.0 mg/kg/injection, schedule: Q01DX005 (ip), vehicle: Klucel (hydroxypropylcellulose) (HPC)); 110 % of control (dose: 100.0 mg/kg/injection, schedule: Q01DX005 (ip), vehicle: Klucel (hydroxypropylcellulose) (HPC)); 89 % of control (dose: 200.0 mg/kg/injection, schedule: Q01DX005 (ip), vehicle: Klucel (hydroxypropylcellulose) (HPC)).

Take `O=C1NC(=O)C2=C1CCCC2O` (centres undefined): the T/C runs as follows: under setting [7], 102 % of control; under setting [8], 101 % of control; under setting [9], 110 % of control; under setting [10], 102 % of control; under setting [11], 107 % of control; under setting [12], 118 % of control.

Consider `CC[C@@]1(O)C(=O)OCc2c1cc1n(c2=O)Cc2cc3cc(O)ccc3nc2-1`, for which the T/C by setting is: (dose: 0.5 mg/kg/injection, schedule: Q04DX003 (ip), vehicle: other) 160 % of control and 229 % of control; (dose: 0.79 mg/kg/injection, schedule: Q04DX003 (ip), vehicle: other) 165 % of control; (dose: 1.0 mg/kg/injection, schedule: Q04DX003 (ip), vehicle: other) 166 % of control and 192 % of control; (dose: 1.57 mg/kg/injection, schedule: Q04DX003 (ip), vehicle: other) 199 % of control; (dose: 2.0 mg/kg/injection, schedule: Q04DX003 (ip), vehicle: other) 229 % of control; (dose: 3.13 mg/kg/injection, schedule: Q04DX003 (ip), vehicle: other) 295 % of control. Also, the T/C was 284 % of control and 314 % of control (dose: 4.0 mg/kg/injection, schedule: Q04DX003 (ip), vehicle: other); 101 % of control (dose: 8.0 mg/kg/injection, schedule: Q04DX003 (ip), vehicle: other).

On to `CC(O)c1cc(C(C)O)cc(C(C)O)c1` (centres undefined), for which the T/C reads like this: under setting [10], 95 % of control; under setting [11], 101 % of control; under setting [12], 99 % of control.

For the compound `CCOC1=C(C)Sc2ccccc2N=C1c1ccccc1`, the T/C is 99 % of control (dose: 100.0 mg/kg/injection, schedule: Q04DX002 (ip), vehicle: Klucel + Tween-80); 93 % of control (dose: 200.0 mg/kg/injection, schedule: Q04DX002 (ip), vehicle: Klucel + Tween-80); 98 % of control (dose: 400.0 mg/kg/injection, schedule: Q04DX002 (ip), vehicle: Klucel + Tween-80).

On to `CCCCN(CCCC)CNC(=O)c1ccccc1`, for which the T/C under setting [1] was 97 % of control and the T/C under setting [2] was 100 % of control.

In the case of `Cc1ccc(S(=O)(=O)NCCN(CCN(CCNS(=O)(=O)c2ccc(C)cc2)S(=O)(=O)c2ccc(C)cc2)S(=O)(=O)c2ccc(C)cc2)cc1`, the T/C is 101 % of control under setting [4], 92 % of control under setting [5] and 90 % of control under setting [6].

Consider `COc1cccc2c1C(=O)c1c(O)c3c(c(O)c1C2=O)C[C@@](O)(C(=O)CO)C[C@@H]3OC1CC(NC(=S)Nc2ccc3ccccc3c2)C(O)C(C)O1` (some centres undefined), for which the T/C is 92 % of control (dose: 3.13 mg/kg/injection, schedule: Q01DX009 (ip), vehicle: saline); 99 % of control under setting [7]; 99 % of control under setting [8]; 101 % of control under setting [9]; 108 % of control under setting [10].

Take `CNc1ccccc1Br`: the T/C under setting [1] is 100 % of control, the T/C under setting [2] is 100 % of control and the T/C under setting [3] is 100 % of control.
